Values of other authors as cited in patent publication US20170119738A1, “PHARMACEUTICAL COMPOSITIONS FOR RIZATRIPTAN” (Dr. Reddy's Laboratories, Ltd., priority 2015, published 2017).

Assays:
[1] = tested on: human cloned 5-HT1B/1D receptors
[2] = tested on: migraine headache

binding affinity [1]: high affinity
Structure (SMILES): CN(C)CCc1c[nH]c2ccc(Cn3cncn3)cc12 [Rizatriptan, N,N-dimethyl-2-[5-(1H-1,2,4-triazol-1-ylmethyl)-1H-indol-3-yl]ethanamine]
pain-free response at 2 hours, symptom-free response at 2 hours, 24 hour sustained pain-free response ([2]; oral 10 mg vs oral sumatriptan, naratriptan, zolmitriptan (Adelman et al. 2001)): more effective
effectiveness for pain relief (PR) and pain freedom (PF) ([2]; oral 10 mg vs other oral triptans (Ng-Mak et al. 2007)): significantly more effective than other oral triptans
